From patent US20240376113A1 (Volastra Therapeutics, Inc., priority 2020, published 2024)
Like-named read-outs stand apart in the source and are kept apart here.

Assays:
[1] = biological target: ENPP1 on MDA-MB-231 cells (Homo sapiens (Human), UniProt P22413); experiment: Inhibition of ENPP1 hydrolysis of AMP p-nitrophenyl ester on MDA-MB-231 cells (Assay 2); type: cell-based; settings: pNP-AMP 0.25 mM, MDA-MB-231 cells, 37° C. 3 h, KI,app from IC50 via Cheng/Prusoff
Procedure: Inhibition of ENPP1 Hydrolysis of AMP p-Nitrophenyl Ester on MDA-MB-231 Cells (Assay 2)
ENPP1 is normally expressed on the human metastatic breast cancer cell line MDA-MB-231. Hydrolysis of the p-nitrophenyl ester of AMP (pNP-AMP), an isostere of ATP, is selectively catalyzed by ENPP1 in the supernatant of MDA-MB-231 cell cultures. Inhibition of the hydrolysis of pNP-AMP by MDA-MB-231 at pH 7.4 and 37° C. is a good model of physiologically relevant activity of membrane-bound ENPP1 at disease-relevant expression levels.
MDA-MB-231 cells were harvested using TypLE Express Enzyme digestion and suspended in 100 μL of Leibovitz's L-15 Medium, 20% FBS, seeding the cells in a 96-well assay plate with 4.5×10^4 cells/well. Cells were incubated at 37 C with 1% CO2 for 24 h. In a separate dilution plate, 2× of top dose of compound was prepared in phenol-red free 1640 medium without FBS and then 1:3 serial diluted in the same medium. The cell culture medium of L15 medium was aspirated carefully and cells were washed with PBS once, and 50 μL per well of test compound or DMSO blank are added to the assay plate. Substrate mix (50 μL; 0.5 mM pNP-AMP in phenol-red free 1640 media without FBS) was added for a pNP-AMP final concentration of 0.25 mM. The system was incubated at 37° C. for 3 h.

[2] = biological target: ENPP-1 ECD (Homo sapiens (Human), UniProt P22413); experiment: Inhibition of ENPP1 hydrolysis of 2′,3′-cGAMP (Assay 1); settings: AMP-Glo luminescence, KI from IC50 via Cheng/Prusoff
Chain of ENPP-1 ECD (P22413 98-925): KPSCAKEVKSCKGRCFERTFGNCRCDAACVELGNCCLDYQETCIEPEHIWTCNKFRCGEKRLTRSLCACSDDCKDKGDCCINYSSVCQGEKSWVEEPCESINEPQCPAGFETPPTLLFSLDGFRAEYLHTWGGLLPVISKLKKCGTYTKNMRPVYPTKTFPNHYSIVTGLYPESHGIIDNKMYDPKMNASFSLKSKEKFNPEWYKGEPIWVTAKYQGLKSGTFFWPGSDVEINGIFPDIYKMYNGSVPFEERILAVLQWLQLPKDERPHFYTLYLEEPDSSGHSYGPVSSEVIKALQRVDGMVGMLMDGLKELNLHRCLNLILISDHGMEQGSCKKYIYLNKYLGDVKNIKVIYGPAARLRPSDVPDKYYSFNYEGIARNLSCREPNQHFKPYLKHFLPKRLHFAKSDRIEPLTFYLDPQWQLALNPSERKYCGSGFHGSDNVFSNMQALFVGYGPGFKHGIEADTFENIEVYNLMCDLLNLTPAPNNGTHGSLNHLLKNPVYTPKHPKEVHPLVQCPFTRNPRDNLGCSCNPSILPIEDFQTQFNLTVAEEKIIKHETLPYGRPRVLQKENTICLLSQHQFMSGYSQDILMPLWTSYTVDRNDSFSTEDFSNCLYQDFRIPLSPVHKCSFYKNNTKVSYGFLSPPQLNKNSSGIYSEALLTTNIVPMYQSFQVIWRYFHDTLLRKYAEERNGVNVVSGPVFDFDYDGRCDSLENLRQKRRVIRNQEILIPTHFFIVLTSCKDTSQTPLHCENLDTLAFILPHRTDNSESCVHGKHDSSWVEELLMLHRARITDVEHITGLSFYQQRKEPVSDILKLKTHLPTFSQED
Procedure: Test compounds were plated in a 3× dilution scheme in a 384 well plate.

[3] = read-out: Assay 2 KI,app values (class)
[4] = Assay 1 KI values (class), 2,3-cGAMP 24 μM
[5] = read-out: Assay 1 KI, 2,3-cGAMP 24 μM
[6] = read-out: Assay 1 KI values (class), 2,3-cGAMP 24 μM

Chain of ENPP1 on MDA-MB-231 cells (P22413 whole entry): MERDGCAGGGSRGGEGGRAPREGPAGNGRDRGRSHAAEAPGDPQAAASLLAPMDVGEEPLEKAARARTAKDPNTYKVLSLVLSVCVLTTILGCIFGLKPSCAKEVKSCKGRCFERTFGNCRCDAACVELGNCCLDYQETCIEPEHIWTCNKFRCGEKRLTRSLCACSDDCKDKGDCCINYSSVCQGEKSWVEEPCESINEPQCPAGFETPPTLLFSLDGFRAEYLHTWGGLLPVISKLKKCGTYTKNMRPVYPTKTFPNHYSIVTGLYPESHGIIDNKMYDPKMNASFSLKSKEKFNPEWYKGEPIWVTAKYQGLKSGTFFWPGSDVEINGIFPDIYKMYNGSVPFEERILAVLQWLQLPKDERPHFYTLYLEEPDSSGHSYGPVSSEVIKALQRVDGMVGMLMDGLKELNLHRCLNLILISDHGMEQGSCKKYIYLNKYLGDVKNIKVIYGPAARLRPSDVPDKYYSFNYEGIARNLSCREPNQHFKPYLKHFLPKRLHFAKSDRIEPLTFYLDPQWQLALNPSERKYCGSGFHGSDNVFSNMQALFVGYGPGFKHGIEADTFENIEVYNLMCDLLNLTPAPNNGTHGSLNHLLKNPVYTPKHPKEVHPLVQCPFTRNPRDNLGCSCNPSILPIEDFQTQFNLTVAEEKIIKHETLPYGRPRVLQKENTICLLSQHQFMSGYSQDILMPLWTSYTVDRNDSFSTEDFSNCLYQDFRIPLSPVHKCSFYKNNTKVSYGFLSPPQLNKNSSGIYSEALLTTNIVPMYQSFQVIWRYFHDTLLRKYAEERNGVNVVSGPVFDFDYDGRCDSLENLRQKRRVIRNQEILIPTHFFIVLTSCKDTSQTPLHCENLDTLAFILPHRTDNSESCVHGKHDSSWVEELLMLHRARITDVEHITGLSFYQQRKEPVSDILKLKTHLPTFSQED

Ki ([1]; read-out: Assay 2 KI, app) [nM]	Ki [1, 3] [nM]	Ki [2, 4] [nM]	Ki [2, 5] [nM]	Ki [2, 6] [nM]	Compound
24.1	> 10	< 3			CS(=N)(=O)c1ccc(Cc2c(Cl)nc3ncnn3c2N2CCCC2)cc1 (stereo not shown) [Compound 78, (4-{[5-chloro-7-(pyrrolidin-1-yl)-[1,2,4]triazolo[1,5-a]pyrimidin-6-yl]methyl}phenyl)(imino)methyl-λ^6-sulfanone]
0.769	< 10	< 3	0.0285		Cc1nc2ncnn2c(N(C)C)c1Cc1ccc(S(=N)(=O)CCC(=O)O)cc1 (stereo not shown) [Compound 72, 3-[(4-{[7-(dimethylamino)-5-methyl-[1,2,4]triazolo[1,5-a]pyrimidin-6-yl]methyl}phenyl)(imino)oxo-λ^6-sulfanyl]propanoic acid]
1.34	< 10		0.0523	< 3	CN(C)c1c(Cc2ccc([S@@](C)(=N)=O)cc2)c(Cl)nc2ncnn12 [Compound 74a]
0.298			0.00604		Cc1c(Cc2ccc([S@@](C)(=N)=O)cc2)c(N(C)C)n2ncnc2c1C#N (single isomer, unassigned) [Compound 85a]
9.59	< 10	< 3			CCS(=N)(=O)c1ccc(Cc2c(C)nc3ncnn3c2N(C)C)cc1 (stereo not shown) [Compound 57, (4-{[7-(dimethylamino)-5-methyl-[1,2,4]triazolo[1,5-a]pyrimidin-6-yl]methyl}phenyl)(ethyl)imino-λ^6-sulfanone]
6.25	< 10	< 3	0.0862		COCCS(=N)(=O)c1ccc(Cc2c(C)nc3ncnn3c2N(C)C)cc1 (stereo not shown) [Compound 60, (4-{[7-(dimethylamino)-5-methyl-[1,2,4]triazolo[1,5-a]pyrimidin-6-yl]methyl}phenyl)(imino)(2-methoxyethyl)-λ^6-sulfanone]
4.41	< 10	< 3	0.0667		CC(=O)NCCS(=N)(=O)c1ccc(Cc2c(C)nc3ncnn3c2N(C)C)cc1 (stereo not shown) [Compound 64, N-{2-[(4-{[7-(dimethylamino)-5-methyl-[1,2,4]triazolo[1,5-a]pyrimidin-6-yl]methyl}phenyl)(imino)oxo-λ^6-sulfanyl]ethyl}acetamide]
74.4	> 10	< 3	2.86		CN(C)c1c(Cc2ccc(S(C)(=N)=O)cc2)c(C#N)nc2ncnn12 (stereo not shown) [Compound 79, 7-(dimethylamino)-6-({4-[imino(methyl)oxo-λ^6-sulfanyl]phenyl}methyl)-[1,2,4]triazolo[1,5-a]pyrimidine-5-carbonitrile]
69.9	> 10	< 3	1.16		Cc1nc2ncnn2c(N2CCCC2)c1Cc1ccc(C(=O)NO)cc1 [Compound 82, N-hydroxy-4-{[5-methyl-7-(pyrrolidin-1-yl)-[1,2,4]triazolo[1,5-a]pyrimidin-6-yl]methyl}benzamide]
7.13	< 10	< 3			CN(C)c1c(Cc2ccc(S(C)(=N)=O)cc2)c(Cl)nc2ncnn12 (stereo not shown) [Compound 74, (4-{[5-chloro-7-(dimethylamino)-[1,2,4]triazolo[1,5-a]pyrimidin-6-yl]methyl}phenyl)(imino)methyl-λ^6-sulfanone]
1.65		< 3			Cc1nc2ncnn2c(N(C)C)c1Cc1ccc(S(=N)(=O)Cc2ccccc2)cc1 (stereo not shown) [Compound 55, benzyl(4-((7-(dimethylamino)-5-methyl-[1,2,4]triazolo[1,5-a]pyrimidin-6-yl)methyl)phenyl)(imino)-λ^6-sulfanone]
2.54	< 10	< 3	0.0443		Cc1c(Cc2ccc(S(C)(=N)=O)cc2)c(N(C)C)n2ccnc2c1C#N (stereo not shown) [Compound 80, 5-(dimethylamino)-6-({4-[imino(methyl)oxo-λ^6-sulfanyl]phenyl}methyl)-7-methylimidazo[1,2-a]pyridine-8-carbonitrile]
8.29					Cc1c(Cc2ccc(S(C)(=N)=O)cc2)c(N(C)C)nc2ncnn12 (stereo not shown) [Compound 86, (4-{[5-(dimethylamino)-7-methyl-[1,2,4]triazolo[1,5-a]pyrimidin-6-yl]methyl}phenyl)(imino)methyl-λ^6-sulfanone]
11.5	> 10	< 3			Cc1nc2ncnn2c(N(C)C)c1Cc1ccc(S(=N)(=O)CCO)cc1 (stereo not shown) [Compound 59, (4-{[7-(dimethylamino)-5-methyl-[1,2,4]triazolo[1,5-a]pyrimidin-6-yl]methyl}phenyl)(2-hydroxyethyl)imino-λ^6-sulfanone]

The next lines start with the compound.

Compound	Ki ([1]; read-out: Assay 2 KI, app) [nM]	Ki [1, 3] [nM]	Ki [2, 4] [nM]	Ki [2, 5] [nM]	Ki [2, 6] [nM]
Cc1nc2nccn2c(N(C)C)c1Cc1ccc(S(C)(=N)=O)cc1 (stereo not shown) [Compound 29, (4-{[5-(dimethylamino)-7-methylimidazo[1,2-a]pyrimidin-6-yl]methyl}phenyl)(imino)methyl-λ^6-sulfanone]	12.2	> 10	< 3	0.252	
Cc1nc2ncnn2c(N(C)C)c1Cc1ccc(S(N)(=O)=O)cc1 [Compound 2, 4-((7-(dimethylamino)-5-methyl-[1,2,4]triazolo[1,5-a]pyrimidin-6-yl)methyl)benzenesulfonamide]	14.4	> 10	< 3	0.158	
Cc1cc2ncnn2c(N(C)C)c1Cc1ccc([S@](C)(=N)=O)cc1 (single isomer, unassigned) [Compound 28a]	0.56	< 10		0.00806	< 3
Cc1nc2ncnn2c(N2CCCCC2)c1Cc1ccc(S(C)(=N)=O)cc1 (stereo not shown) [Compound 16, imino(methyl)(4-((5-methyl-7-(piperidin-1-yl)-[1,2,4]triazolo[1,5-a]pyrimidin-6-yl)methyl)phenyl)-λ^6-sulfanone]	14.9	> 10	< 3	0.0814	
Cc1nc2ncnn2c(N2CCCC2)c1Cc1ccc(P(=O)(O)O)cc1 [Compound 36, (4-{[5-methyl-7-(pyrrolidin-1-yl)-[1,2,4]triazolo[1,5-a]pyrimidin-6-yl]methyl}phenyl)phosphonic acid]	5.68	< 10	< 3	0.512	
Cc1nc2ncnn2c(N2CCCC2)c1Cc1ccc(S(N)(=O)=O)cc1 [Compound 9, 4-((5-methyl-7-(pyrrolidin-1-yl)-[1,2,4]triazolo[1,5-a]pyrimidin-6-yl)methyl)benzenesulfonamide]	32.4	> 10	< 3	0.569	
Cc1nc2ncnn2c(N2CCC2)c1Cc1ccc(S(C)(=N)=O)cc1 (stereo not shown) [Compound 10, (4-((7-(azetidin-1-yl)-5-methyl-[1,2,4]triazolo[1,5-a]pyrimidin-6-yl)methyl)phenyl)(imino)(methyl)-λ^6-sulfanone]	224	> 10	3 to 300	3.12	
Cc1nc2ncnn2c(N2CCCC2)c1Cc1ccc([S@](C)(=N)=O)cc1 (single isomer, unassigned) [Compound 8a]	9.73	< 10		0.054	< 3
CS(=N)(=O)c1ccc(Cc2cnc3ncnn3c2N2CCCC2)cc1 (stereo not shown) [Compound 54]	74.7	> 10		1.71	< 3
Cc1nc2nccn2c(N(C)C)c1Cc1ccc([S@](C)(=N)=O)cc1 [Compound 29a]	3.15	< 10		0.106	< 3
CCc1nc2ncnn2c(N2CCCC2)c1Cc1ccc(S(C)(=N)=O)cc1 (stereo not shown) [Compound 50, (4-{[5-ethyl-7-(pyrrolidin-1-yl)-[1,2,4]triazolo[1,5-a]pyrimidin-6-yl]methyl}phenyl)(imino)methyl-λ^6-sulfanone]	15.7	> 10	< 3		
Cc1nc2ncnn2c(N(C)C)c1Cc1ccc(P(=O)(O)O)cc1 [Compound 5, (4-{[7-(dimethylamino)-5-methyl-[1,2,4]triazolo[1,5-a]pyrimidin-6-yl]methyl}phenyl)phosphonic acid]	7.94	< 10	< 3	0.851	
Cc1nc2ncnn2c(N(C)C)c1Cc1ccc([S@@](C)(=N)=O)cc1 (single isomer, unassigned) [Compound 1b]	1.67	< 10		0.015	< 3
Cc1nc2ncnn2c(N2CCCC2)c1Cc1ccc(S(C)(=N)=O)cc1 (stereo not shown) [Compound 8, imino(methyl)(4-((5-methyl-7-(pyrrolidin-1-yl)-[1,2,4]triazolo[1,5-a]pyrimidin-6-yl)methyl)phenyl)-λ^6-sulfanone]	7.79	< 10	< 3	0.0718	
